In patent US9670221B2, “Furopyridines as bromodomain inhibitors” (GlaxoSmithKline Intellectual Property (No.2) Limited, priority 2013, dated 2017):
Counter-ions that a name gives are not always drawn.

The compounds below were run against T1, BRD4 BD1 (Homo sapiens, UniProt O60885, Y390A) (assay: TR-FRET binding assay, BRD4 BD1 (mutant protein)). Settings: BRD4 (1-477) mutant, 10 nM protein, read-out: pIC50 in the BRD4 BD1 assay (converted).
T1 construct: BRD4 (1-477) (Y97A) and (Y390A); made in house; host or cells: E. coli (pET15b vector)
Method: Time Resolved Fluorescence Resonance Energy Transfer (TR-FRET) Assay
Binding was assessed using a time resolved fluorescent resonance energy transfer binding assay. This utilises a 6 His purification tag at the N-terminal of the proteins as an epitope for an anti-6 His antibody labeled with Europium chelate (PerkinElmer AD0111) allowing binding of the Europium to the proteins which acts as the donor fluorophore. A small molecule, high affinity binder of the bromodomains BRD2, BRD3, BRD4 and BRDT has been labeled with Alexa Fluor647 (Reference Compound X) and this acts as the acceptor in the FRET pair.
Assay Principle: In the absence of a competing compound, excitation of the Europium causes the donor to emit at λ618 nm which excites the Alexa labelled bromodomain binding compound leading to an increased energy transfer that is measurable at λ647 […]. In the presence of a sufficient concentration of a compound that can bind these proteins, the interaction is disrupted leading to a quantifiable drop in fluorescent resonance energy transfer.
The binding of the compounds of formula (I) to Bromodomains BRD2, BRD3, BRD4 and BRDT was assessed using mutated proteins to detect differential binding to either Binding Domain 1 (BD1) or Binding Domain 2 (BD2) on the bromodomain. These single residue mutations in the acetyl lysine binding pocket greatly lower the affinity of the fluoroligand (Reference Compound X) for the mutated domain (>1000 fold selective for the non-mutated domain). Therefore in the final assay conditions, binding of the fluoroligand to the mutated domain cannot be detected and subsequently the assay is suitable to determine the binding of compounds to the single non-mutated bromodomain.
Protein production: Recombinant Human Bromodomains [(BRD2 (1-473) (Y113A) and (Y386A), BRD3 (1-435) (Y73A) and (Y348A) BRD4 (1-477) (Y97A) and (Y390A) and BRDT (1-397) (Y66A) and (Y309A)] were expressed in E. coli cells (in pET15b vector for BRD2/3/4 and in pET28a vector for BRDT) with a 6-His tag at the N-terminal. The His-tagged Bromodomain pellet was resuspended in 50 mM HEPES (pH7.5), 300 mM NaCl, 10 mM imidazole & 1 μl/mL protease inhibitor cocktail and extracted from the E. coli cells using sonication and purified using a nickel sepharose high performance column, the proteins were washed and then eluted with a linear gradient of 0-500 mM imidazole with buffer 50 mM HEPES (pH7.5), 150 mM NaCl, 500 mM imidazole, over 20 column volumes. Final purification was completed by Superdex 200 prep grade size exclusion column. Purified protein was stored at −80° C. in 20 mM HEPES pH 7.5 and 100 mM NaCl. Protein identity was confirmed by peptide mass fingerprinting and predicted molecular weight confirmed by mass spectrometry.
Protocol for Bromodomain BRD2, 3, 4 and T, BD1^+BD2 mutant assays: All assay components were dissolved in buffer composition of 50 mM HEPES pH7.4, 50 mM NaCl, 5% Glycerol, 1 mM DTT and 1 mM CHAPS. The final concentration of bromodomain proteins were 10 nM and the Alexa Fluor647 ligand was at Kd. These components were premixed and 5 μl of this reaction mixture was added to all wells containing 50 nl of various concentrations of test compound or DMSO vehicle (0.5% DMSO final) in Greiner 384 well black low volume microtitre plates and incubated in dark for 30 minutes at room temperature. 5 μl of detection mixture containing 1.5 nM final concentration anti-6His Europium chelate was added to all wells and a further dark incubation of at least 30 minutes was performed. Plates were then read on the Envision platereader, (λex=317 nm, donor λem=615 nm; acceptor λem=665 nm; Dichroic LANCE dual). Time resolved fluorescent intensity measurements were made at both emission wavelengths and the ratio of acceptor/donor was calculated and used for data analysis. All data was normalized to the mean of 16 high (inhibitor control—Example 11 of WO 2011/054846A1) and 16 low (DMSO) control wells on each plate. […]

| Structure (SMILES) | IC50 [nM] |
| --- | --- |
| CC(c1cc2c(=O)n(C)cc(-c3ccnc(OCC4CCOCC4)c3)c2o1)N1CCN(S(C)(=O)=O)CC1 (single isomer, unassigned) [Example 21a, 5-methyl-2-(1-(4-(methylsulfonyl)piperazin-1-yl)ethyl)-7-(2-((tetrahydro-2H-pyran-4-yl)methoxy)pyridin-4-yl)furo[3,2-c]pyridin-4(5H)-one] | ≤ 100 |
| COc1ccc(-c2cn(C)c(=O)c3cc(CN4CCN(S(C)(=O)=O)CC4)oc23)cc1OC [Example 1, 7-[3,4-bis(methyloxy)phenyl]-5-methyl-2-{[4-(methylsulfonyl)-1-piperazinyl]methyl}furo[3,2-c]pyridin-4(5H)-one] | ≤ 100 |
| Cn1cc(-c2cccc(OCc3ccccc3)c2)c2oc(CN3CCN(S(C)(=O)=O)CC3)cc2c1=O [Example 3, 7-(3-(benzyloxy)phenyl)-5-methyl-2-((4-(methylsulfonyl)piperazin-1-yl)methyl)furo[3,2-c]pyridin-4(5H)-one] | ≤ 100 |
| Cn1cc(-c2cccc(NCc3ccccc3)c2)c2oc(CN3CCN(S(C)(=O)=O)CC3)cc2c1=O [Example 4, 7-(3-(benzylamino)phenyl)-5-methyl-2-((4-(methylsulfonyl)piperazin-1-yl)methyl)furo[3,2-c]pyridin-4(5H)-one] | ≤ 100 |
| Cn1cc(-c2ccnc(OCC3CCOCC3)c2)c2oc(CN3CCN(S(C)(=O)=O)CC3)cc2c1=O [Example 7, 5-methyl-2-((4-(methylsulfonyl)piperazin-1-yl)methyl)-7-(2-((tetrahydro-2H-pyran-4-yl)methoxy)pyridin-4-yl)furo[3,2-c]pyridin-4(5H)-one] | ≤ 100 |
| CC(Oc1cncc(-c2cn(C)c(=O)c3cc(CN4CCN(S(C)(=O)=O)CC4)oc23)c1)c1ccccc1 (stereo not drawn) [Example 12, 5-methyl-2-((4-(methylsulfonyl)piperazin-1-yl)methyl)-7-(5-(1-phenylethoxy)pyridin-3-yl)furo[3,2-c]pyridin-4(5H)-one] | ≤ 100 |
| CC(Nc1cc(-c2cn(C)c(=O)c3cc(CN4CCN(S(C)(=O)=O)CC4)oc23)ccn1)c1ccccc1 (stereo not drawn) [Example 14, 5-methyl-2-((4-(methylsulfonyl)piperazin-1-yl)methyl)-7-(2-((1-phenylethyl)amino)pyridin-4-yl)furo[3,2-c]pyridin-4(5H)-one] | ≤ 100 |
| CC(Nc1cccc(-c2cn(C)c(=O)c3cc(CN4CCN(S(C)(=O)=O)CC4)oc23)c1)c1ccccc1 (stereo not drawn) [Example 15, 5-methyl-2-((4-(methylsulfonyl)piperazin-1-yl)methyl)-7-(3-((1-phenylethyl)amino)phenyl)furo[3,2-c]pyridin-4(5H)-one] | ≤ 100 |
| CC(c1cc2c(=O)n(C)cc(-c3ccnc(OCC4CCOCC4)c3)c2o1)N1CCN(S(C)(=O)=O)CC1 (stereo not drawn) [Example 21, 5-methyl-2-(1-(4-(methylsulfonyl)piperazin-1-yl)ethyl)-7-(2-((tetrahydro-2H-pyran-4-yl)methoxy)pyridin-4-yl)furo[3,2-c]pyridin-4(5H)-one formate] | ≤ 100 |
| Cn1cc(-c2ccncc2OCC2CC2)c2oc(CN3CCN(S(C)(=O)=O)CC3)cc2c1=O [Example 31, 7-(3-(cyclopropylmethoxy)pyridin-4-yl)-5-methyl-2-((4-(methylsulfonyl)piperazin-1-yl)methyl)furo[3,2-c]pyridin-4(5H)-one] | ≤ 100 |
| C[C@@H]1CN(S(C)(=O)=O)CCN1Cc1cc2c(=O)n(C)cc(-c3ccncc3OCC3CC3)c2o1 [Example 32, (R)-7-(3-(cyclopropylmethoxy)pyridin-4-yl)-5-methyl-2-((2-methyl-4-(methylsulfonyl)piperazin-1-yl)methyl)furo[3,2-c]pyridin-4(5H)-one] | ≤ 10 |
| Cn1cc(-c2ccnc(NCc3ccccn3)c2)c2oc(CN3CCCNCC3)cc2c1=O [Example 34, 2-((1,4-diazepan-1-yl)methyl)-5-methyl-7-(2-((pyridin-2-ylmethyl)amino)pyridine-4-yl)furo[3,2-c]pyridin-4(5H)-one hydrochloride] | ≤ 100 |

Other lines, results leading:

| IC50 [nM] | Structure (SMILES) |
| --- | --- |
| ≤ 100 | CC(=O)Nc1cc(-c2cn(C)c(=O)c3cc(CN4CCN(S(C)(=O)=O)C[C@H]4C)oc23)ccn1 [Example 2, (R)—N-(4-(5-methyl-2-((2-methyl-4-(methylsulfonyl)piperazin-1-yl)methyl)-4-oxo-4,5-dihydrofuro[3,2-c]pyridin-7-yl)pyridin-2-yl)acetamide] |
| ≤ 100 | COc1ccc(-c2cn(C)c(=O)c3cc(CN4CCN(S(C)(=O)=O)C[C@H]4C)oc23)cc1OC [Example 10, (R)-7-(3,4-dimethoxyphenyl)-5-methyl-2-((2-methyl-4-(methylsulfonyl)piperazin-1-yl)methyl)furo[3,2-c]pyridin-4(5H)-one] |
| ≤ 100 | C[C@@H]1CN(S(C)(=O)=O)CCN1Cc1cc2c(=O)n(C)cc(-c3ccnc(OCC4CC4)c3)c2o1 [Example 23, (R)-7-(2-(cyclopropylmethoxy)pyridin-4-yl)-5-methyl-2-((2-methyl-4-(methylsulfonyl)piperazin-1-yl)methyl)furo[3,2-c]pyridin-4(5H)-one] |
| ≤ 100 | C[C@@H]1CN(S(C)(=O)=O)CCN1Cc1cc2c(=O)n(C)cc(-c3ccnc(NC(=O)C4CC4)c3)c2o1 [Example 24, (R)—N-(4-(5-methyl-2-((2-methyl-4-(methylsulfonyl)piperazin-1-yl)methyl)-4-oxo-4,5-dihydrofuro[3,2-c]pyridin-7-yl)pyridin-2-yl)cyclopropanecarboxamide] |
| ≤ 100 | CCC(=O)Nc1cc(-c2cn(C)c(=O)c3cc(CN4CCN(S(C)(=O)=O)C[C@H]4C)oc23)ccn1 [Example 25, (R)—N-(4-(5-methyl-2-((2-methyl-4-(methylsulfonyl)piperazin-1-yl)methyl)-4-oxo-4,5-dihydrofuro[3,2-c]pyridin-7-yl)pyridin-2-yl)propionamide] |
| ≤ 100 | COCCOc1cc(-c2cn(C)c(=O)c3cc(CN4CCN(S(C)(=O)=O)C[C@H]4C)oc23)ccn1 [Example 26, (R)-7-(2-(2-methoxyethoxy)pyridin-4-yl)-5-methyl-2-((2-methyl-4-(methylsulfonyl)piperazin-1-yl)methyl)furo[3,2-c]pyridin-4(5H)-one] |
| ≤ 100 | C[C@@H]1CN(S(C)(=O)=O)CCN1Cc1cc2c(=O)n(C)cc(-c3ccnc(OCCN4CCCC4)c3)c2o1 [Example 27, (R)-5-methyl-2-((2-methyl-4-(methylsulfonyl)piperazin-1-yl)methyl)-7-(2-(2-(pyrrolidin-1-yl)ethoxy)pyridin-4-yl)furo[3,2-c]pyridin-4(5H)-one] |
| ≤ 100 | CC(=O)N(C)c1cc(-c2cn(C)c(=O)c3cc(CN4CCN(S(C)(=O)=O)C[C@H]4C)oc23)ccn1 [Example 30, (R)—N-methyl-N-(4-(5-methyl-2-((2-methyl-4-(methylsulfonyl)piperazin-1-yl)methyl)-4-oxo-4,5-dihydrofuro[3,2-c]pyridin-7-yl)pyridin-2-yl)acetamide] |
| ≤ 10 | C[C@@H]1CN(S(C)(=O)=O)CCN1Cc1cc2c(=O)n(C)cc(-c3ccnc(OCCN4CCCC4=O)c3)c2o1 [Example 35, (R)-5-methyl-2-((2-methyl-4-(methylsulfonyl)piperazin-1-yl)methyl)-7-(2-(2-(2-oxopyrrolidin-1-yl)ethoxy)pyridin-4-yl)furo[3,2-c]pyridin-4(5H)-one] |
